Patent US20210317092A1 (BAYER PHARMA AKTIENGESELLSCHAFT, priority 2016, published 2021)
Read-outs that look alike come from different tables or passages of the source.

Tests used:
[1] = biological target: T1, native human Bradykinin B1 receptor (Homo sapiens, UniProt P46663); experiment: Calcium flux Assay (FLIPR) with human fibroblasts expressing Bradykinin B1 receptor (hB1 IMR-90); type: cell-based; conditions: IMR-90 human fibroblasts expressing native Bradykinin B1 receptor
T1 construct: which express native human Bradykinin B1 receptor after induction with human IL-10; Coriell Institute; host or cells: IMR-90 human foetal lung fibroblasts, cytokine-induced
T1 sequence (P46663 1-353): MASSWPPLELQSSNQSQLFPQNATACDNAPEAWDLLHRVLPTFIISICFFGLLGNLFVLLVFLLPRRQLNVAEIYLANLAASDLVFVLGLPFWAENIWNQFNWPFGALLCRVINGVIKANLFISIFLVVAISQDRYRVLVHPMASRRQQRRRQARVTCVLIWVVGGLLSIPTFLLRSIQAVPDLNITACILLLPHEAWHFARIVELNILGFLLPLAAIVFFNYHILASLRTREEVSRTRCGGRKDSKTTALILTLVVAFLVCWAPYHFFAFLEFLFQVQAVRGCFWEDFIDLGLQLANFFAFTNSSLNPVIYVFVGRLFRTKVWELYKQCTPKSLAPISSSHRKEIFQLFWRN
In short: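 IMR-90 human foetal lung fibroblasts induced with 0.35 ng/mL […] for 3 h, Fluo-4/AM-loaded, preincubated with compound (8 concentrations, triplicate) for 30 min at 28 °C, then challenged with Lys-(Des-Arg)-bradykinin at EC90. Ca2+ fluorescence was read at 538 nm; full inhibition set by 20 µM Lys-(Des-Arg-Leu)-bradykinin; IC50 derived.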

[2] = biological target: T2, human Bradykinin B1 receptor (Homo sapiens, UniProt P46663); experiment: Calcium flux Assay (FLIPR) with recombinant CHO-K1 cells expressing human Bradykinin B1 receptor, in presence (hB1 IC50) or absence (hB1 free IC50) of 0.1% BSA; type: cell-based
T2 construct: host or cells: CHO-K1
T2 sequence (P46663 1-353): T1 sequence (P46663 1-353)

[3] = in absence of 0.1% BSA, read-out: hB1 free IC50
[4] = in presence of 0.1% BSA, read-out: hB1 IC50

What does the source list for `O=C(Nc1cc(F)c(-c2ccnc(C(F)(F)F)c2)c(-c2nnn[nH]2)c1)C1(c2ccc(C(F)(F)F)cc2F)CC1` [Example 267, N-{3-fluoro-5-(1H-tetrazol-5-yl)-4-[2-(trifluoromethyl)pyridin-4-yl]phenyl}-1-[2-fluoro-4-(trifluoromethyl)phenyl]cyclopro-panecarboxamide]?
IC50 [1]: 48.3 nM; IC50 [2, 3]: 19 nM

Which results are given for `Cc1ccc(-c2c(F)cc(NC(=O)C3(c4ccc(C(F)(F)F)cc4F)CC3)cc2-c2nnn[nH]2)cn1` [Example 266, N-[3-fluoro-4-(6-methylpyridin-3-yl)-5-(1H-tetrazol-5-yl)phenyl]-1-[2-fluoro-4-(trifluoromethyl)phenyl]cyclopro-panecarboxamide]?
IC50 [1]: 2.38 nM; IC50 [2, 3]: 3.45 nM

Which results are given for `CCOc1ccc(-c2ccc(NC(=O)C3(c4ccc(OC)c(F)c4)CC3)cc2-c2nnn[nH]2)cn1` [Example 86, N-[4-(6-ethoxypyridin-3-yl)-3-(1H-tetrazol-5-yl)phenyl]-1-(3-fluoro-4-methoxyphenyl) cyclopropane-carboxamide]?
IC50 [1]: 27.4 nM; IC50 [2, 3]: 40.3 nM; IC50 [2, 4]: 92.5 nM

Which IC50 [1] does the source give for `CC(F)(F)c1ccc(-c2ccc(NC(=O)C3(c4cccc(Cl)c4)CC3)cc2-c2nnn[nH]2)cn1` [Example 202, 1-(3-chlorophenyl)-N-{4-[6-(1,1-difluoroethyl)pyridin-3-yl]-3-(1H-tetrazol-5-yl)phenyl} cyclopropane-carboxamide] here?
The IC50 was 50.9 nM.

What about the IC50 [2, 3] of the same compound?
Its IC50 is 83.2 nM.

What does the source list for `CCOc1ccc(-c2ccc(NC(=O)C3(c4ccccc4F)CC3)cc2-c2nnn[nH]2)cn1` [Example 92, N-[4-(6-ethoxypyridin-3-yl)-3-(1H-tetrazol-5-yl)phenyl]-1-(2-fluorophenyl) cyclopropane-carboxamide]?
IC50 [1]: 25.3 nM; IC50 [2, 3]: 37.7 nM; IC50 [2, 4]: 39.8 nM

For `O=C(Nc1ccc(-c2ccc(C(F)(F)F)nc2)c(-c2nnn[nH]2)c1)C1(c2ccc(F)c(Cl)c2)CC1` [Example 139, 1-(3-chloro-4-fluorophenyl)-N-{3-(1H-tetrazol-5-yl)-4-[6-(trifluoromethyl)pyridin-3-yl]phenyl} cyclopropane-carboxamide], which IC50 [1] is on record?
The IC50 was 91 nM.

What about the IC50 [2, 3] of the same compound?
The IC50 was 22.6 nM.

What does the source list for `O=C(Nc1ccc(-c2ccc(C(F)(F)F)nc2)c(-c2nnn[nH]2)c1)C1(c2ccc(C(F)(F)F)cc2F)CC1` [Example 191, 1-[2-fluoro-4-(trifluoromethyl)phenyl]-N-{3-(1H-tetrazol-5-yl)-4-[6-(trifluoromethyl)pyridin-3-yl]phenyl} cyclopropane-carboxamide]?
IC50 [1]: 20.5 nM; IC50 [2, 3]: 11.8 nM

With `COc1ccc(-c2ccc(NC(=O)C3(c4ccc(Cl)c(F)c4)CC3)cc2-c2nnn[nH]2)cc1OC` [Example 16, 1-(4-chloro-3-fluorophenyl)-N-[3′,4′-dimethoxy-2-(1H-tetrazol-5-yl)biphenyl-4-yl]cyclopropane carboxamide] as the compound, how does the IC50 [1] read?
Its IC50 is 528 nM.

And the IC50 [2, 4]?
Its IC50 is 31.7 nM.

What does the source list for `CC(F)(F)c1ccc(-c2ccc(NC(=O)C3(c4ccc(F)c(F)c4)CC3)cc2-c2nnn[nH]2)cn1` [Example 279, N-{4-[6-(1,1-difluoroethyl)py-ridin-3-yl]-3-(1H-tetrazol-5-yl)phenyl}-1-(3,4-difluorophenyl)cy-clopropanecar-boxamide]?
IC50 [1]: 16.3 nM; IC50 [2, 3]: 23.1 nM

What does the source list for `CCc1ccc(-c2ccc(NC(=O)C3(c4cccc(Cl)c4)CC3)cc2-c2nnn[nH]2)cn1` [Example 338, 1-(3-chlorophenyl)-N-[4-(6-ethylpyridin-3-yl)-3-(1H-tetrazol-5-yl)phenyl]cyclopro-panecarboxa-mide]?
IC50 [1]: 6.03 nM; IC50 [2, 3]: 8.98 nM; IC50 [2, 4]: 20.4 nM

Which results are given for `O=C(Nc1ccc(-c2ccc(C(F)(F)F)nc2)c(-c2nnn[nH]2)c1)C1(c2cccc(Cl)c2F)CC1` [Example 138, 1-(3-chloro-2-fluorophenyl)-N-{3-(1H-tetrazol-5-yl)-4-[6-(trifluoromethyl)pyridin-3-yl]phenyl} cyclopropane-carboxamide]?
IC50 [1]: 102 nM; IC50 [2, 3]: 51.3 nM
